Data on eleven compounds can be found in ChEMBL document CHEMBL1127095, “Pharmacology of (2R, 4R, 5S)-2-amino-4,5-(1,2-cyclohexyl)-7-phosphonoheptanoic acid (NPC 17742); a selective, systemically active, competitive NMDA antagonist” (Bioorg Med Chem Lett, 1993).

Usually IC50 stands for the midpoint of a concentration-inhibition curve. The low end stands for inhibition by little substance, the high end for a need for much substance. In general, LD50 refers to the dose at which mortality reaches 50%.

The subject of data set [1] is Mus musculus. Kind of data set: Tested for the ability to inhibit the NMDA induced (250mg/Kg, intraperitoneal) seizures in male CF-1 mice when given 30 min prior to NMDA (intraperitoneal). It counts as functional. As to conditions: ip.
Data set [2] concerns Mus musculus. Briefly: Tested for the ability to inhibit the NMDA induced (250mg/Kg, intraperitoneally) seizures in male CF-1 mice given 15 min prior to NMDA (intracerebroventricularly). It counts as functional.
The target in data set [3] is Glutamate NMDA receptor. Briefly: Tested for the ability to inhibit the specific binding of [3H]-CGS- 19755 to NMDA recognition sites on rat brain membranes. The class given is cell membranes, Membrane.
Data set [4] concerns Rattus norvegicus. Kind of data set: Tested for the paradigm of drug-discrimination assay in rats by intraperitoneal administration. The class given is functional. As to conditions: ip.
Data set [5] concerns Rodentia sp. Briefly: Tested for the ability to inhibit the cocaine-induced seizures in rodents. It counts as functional.
For data set [6], the system named is Rattus norvegicus. Briefly: Tested for the paradigm of drug-discrimination assay in rats by intraperitoneal administration. It counts as functional. To be noted: ip.
In data set [7] the test system is Rattus norvegicus. Briefly: Tested for the paradigm of drug-discrimination assay (NPC 17742 (4 mg/Kg) from saline) in rats by intraperitoneal administration. The class given is functional. To be noted: ip.
For data set [8], the system named is Mus musculus. Briefly: Tested for the ability to inhibit the […] induced seizures (ip administration). The class given is functional.
The species entered for data set [9] is Mus musculus. Briefly: Tested for the ability to inhibit the maximal electroshock induced seizures in mice. It counts as functional. (In general: Protection in the maximal electroshock model is a classic sign of anticonvulsant action.)
The species named for data set [10] is Mus musculus. Briefly: Tested for the ability to inhibit the pentylenetetrazole seizures in mice. The class given is functional.
For data set [11], the system named is Rattus norvegicus. Briefly: Tested for the paradigm of drug-discrimination assay (NPC 17742 (4 mg/Kg; i.p.) from saline) in rat by intraperitoneal administration. The class given is functional. As to conditions: ip.
The subject of data set [12] is Rattus norvegicus. Kind of data set: Tested for the paradigm of drug-discrimination assay in rat by intraperitoneal administration. The class given is functional. To be noted: ip.
The nature of data set [13]: Tested for the lethal dose by intraperitoneal administration. The class given is ADME. To be noted: mouse, ip.

A value given as a limit tells only on which side of the number the result lay.

As for `N[C@@H](C[C@@H]1CCCC[C@@H]1CCP(=O)(O)O)C(=O)O`, the ED50 in data set [1] was found to be 32 mg/kg; in data set [2], 8.5 nmol. The same compound registered an IC50 in [3] of 2.4 µM.

Turning to `NC(C[C@@H]1CCCC[C@H]1CCP(=O)(O)O)C(=O)O` (stereo in doubt; (+)), the ED50 in data set [2] was determined as 49 nmol. Moreover, the IC50 in data set [3] is 28 µM.

For `CC(=CC(N)C(=O)O)CP(=O)(O)O` (stereo not given) [CGP-37849], the figures for the ED50 in data set [4] and in data set [5] were 0.8 mg/kg and 0.1 mg/kg, respectively.

As to `O=C(O)[C@@H]1C[C@H](CP(=O)(O)O)CCN1` (single isomer, unassigned) [SELFOTEL], the ED50 came to 2.6 mg/kg in [1], 0.19 nmol in data set [2] and 2.3 mg/kg in [6]. The compound also yielded a concentration for half-maximal inhibition (IC50) in data set [3] of 0.087 µM.

`NC(CC1CCCCC1CCP(=O)(O)O)C(=O)O` (stereo not given): the ED50 in [7] amounted to 8.9 mg/kg; in data set [4], 18.1 mg/kg.

For `O=C(O)C1CN(CCCP(=O)(O)O)CCN1` (racemic), the ED50 in data set [1] was 2.2 mg/kg; in data set [2] it was 1.2 nmol. For the same compound, in [3], the 50% inhibitory concentration (IC50) was determined as 0.19 µM.

In [4], `O=C(O)[C@H]1CN(C/C=C/P(=O)(O)O)CCN1` [MIDAFOTEL] came in with an ED50 of 0.8 mg/kg.

`N[C@@H](C[C@H]1CCCC[C@H]1CCP(=O)(O)O)C(=O)O`: the ED50 in data set [1] turned out to be 40 mg/kg; in [2], 44.6 nmol. The compound further registered an IC50 in data set [3] of 2.6 µM.

`NC(C[C@@H]1CCCC[C@H]1CCP(=O)(O)O)C(=O)O` (stereo in doubt; (-)): the ED50 in data set [1] is greater than 100 mg/kg; in data set [2] it was 20 nmol. Moreover, the 50% inhibitory concentration (IC50) in data set [3] worked out at 4.05 µM.

With `N[C@H](C[C@@H]1CCCC[C@@H]1CCP(=O)(O)O)C(=O)O`, the values for the ED50 in data set [1] and in data set [2] were 33 mg/kg and 8.5 nmol, respectively. In data set [3], this compound returned an IC50 of 5.6 µM.

Consider `N[C@H](C[C@H]1CCCCC1CCP(=O)(O)O)C(=O)O` (single isomer, unassigned), for which the ED50 was 4.5 mg/kg in data set [8]; 1.05 mg/kg in data set [1]; 0.28 nmol in [2]; 13 mg/kg in data set [9]; 4.5 mg/kg in data set [10]; 1.9 mg/kg in [11]. Further, in [12], the ED50 came out at 2.1 mg/kg. For the same compound, the IC50 in data set [3] was determined as 0.27 µM. Besides, in data set [13], the LD50 was greater than 1000 mg/kg.
